Reference: patent US20090281121A1, “SUBSTITUTED 8-PIPERIDINYL-2-PYRIDINYL-PYRIMIDO[1,2-a] PYRIMIDIN-6-ONE AND 8-PIPERIDINYL-2-PYRIMIDINYL-PYRIMIDO[1,2-a] PYRIMIDIN-6-ONE DERIVATIVES” (SANOFI-AVENTIS, priority 2006, published 2009)
Where a name gives a salt, the structure may show the parent alone.

Legend:
GSK3β = GSK3β (Homo sapiens, UniProt P49841); assay: Inhibitory activity against GSK3β (33P-ATP phosphorylation of prephosphorylated GS1 peptide, two protocols); assay type: biochemical; conditions: first or second protocol not specified
Experimental: Two different protocols can be used.
In a first protocol: 7.5 μM of prephosphorylated GS1 peptide and 10 μM ATP (containing 300,000 cpm of 33P-ATP) were incubated in 25 mM Tris-HCl, pH 7.5, 0.6 mM DTT, 6 mM MgCl2, 0.6 mM EGTA, 0.05 mg/ml BSA buffer for 1 hour at room temperature in the presence of GSK3beta (total reaction volume: 100 microliters).
In a second protocol: 4.1 μM of prephosphorylated GS1 peptide and 42 μM ATP (containing 260,000 cpm 33P-ATP) were incubated in 80 mM Mes-NaOH, pH 6.5, 1 mM Mg acetate, 0.5 mM EGTA, 5 mM 2-mercaptoethanol, 0.02% Tween 20, 10% glycerol buffer for 2 hours at room temperature in the presence of GSK3beta. Inhibitors were solubilized in DMSO (final solvent concentration in the reaction medium, 1%).
The reaction was stopped with 100 microliters of a solution made of 25 g polyphosphoric acid (85% P2O5), 126 ml 85% H3PO4, H2O to 500 ml and then diluted to 1:100 before use. An aliquot of the reaction mixture was then transferred to Whatman P81 cation exchange filters and rinsed with the solution described above. Incorporated 33P radioactivity was determined by liquid scintillation spectrometry.
The phosphorylated GS-1 peptide had the following sequence NH2-[…](P)EDEE-COOH. (Woodgett, J. R. (1989) Analytical Biochemistry 180, 237-241.

Sequence of GSK3β (P49841 whole entry): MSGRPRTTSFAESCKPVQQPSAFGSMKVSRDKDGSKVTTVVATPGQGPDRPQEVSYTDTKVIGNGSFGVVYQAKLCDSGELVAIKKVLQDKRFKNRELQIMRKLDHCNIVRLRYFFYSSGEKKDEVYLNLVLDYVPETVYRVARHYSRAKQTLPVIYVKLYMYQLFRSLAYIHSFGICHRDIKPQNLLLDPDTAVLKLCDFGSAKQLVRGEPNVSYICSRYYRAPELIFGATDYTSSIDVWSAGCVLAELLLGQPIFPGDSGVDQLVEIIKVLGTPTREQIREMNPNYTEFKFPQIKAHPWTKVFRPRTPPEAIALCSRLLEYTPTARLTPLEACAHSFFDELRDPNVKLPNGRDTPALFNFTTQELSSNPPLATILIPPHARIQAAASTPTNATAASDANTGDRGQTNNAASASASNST

Compound: O=C(CN1c2nc(-c3ccncc3)cc(=O)n2CCC1C1CCNCC1)c1cccc(Br)c1 (racemic) (as salt: hydrochloride) [compound 8, (−)9-[2-Oxo-2-(3-bromo-phenyl)ethyl]-8-(4-piperidinyl)-2-(4-pyridinyl)-6,7,8,9-tetrahydro-4H-pyrimido[1,2-a]pyrimidin-4-one]
- melting point: 255 to 257 °C

Compound: O=C(CN1c2nc(-c3ccncc3)cc(=O)n2CCC1C1CCNCC1)c1ccccc1 (racemic) [Compound No. 3, (+/−)-9-(2-Oxo-2-phenylethyl)-8-(4-piperidinyl)-2-(4-pyridinyl)-6,7,8,9-tetrahydro-4H-pyrimido[1,2-a]pyrimidin-4-one]
- IC50 (GSK3β): 12 nM

Compound: COc1cc(F)ccc1CCN1c2nc(-c3ccncc3)cc(=O)n2CCC1C1CCNCC1 (racemic) [compound 7, (+/−)9-[2-(4-fluoro-2-methoxy-phenyl)ethyl]-8-(4-piperidinyl)-2-(4-pyridinyl)-6,7,8,9-tetrahydro-4H-pyrimido[1,2-a]pyrimidin-4-one]
- melting point: 270 to 272 °C
